From patent US9868737B2, “Pyridino[1,2-A]pyrimidone analogue used as MTOR/P13K inhibitor” (CISEN PHARMACEUTICAL CO., LTD., priority 2014, dated 2018)
Like-named read-outs stand apart in the source and are kept apart here.

Tested on: MCF-7 cells
Test: In vitro test of cell activity (MCF-7 cells, insulin stimulation, ELISA-One fluorescence)
Assay type: cell-based
Conditions: Homo sapiens, MCF7, MCF-7 cells; for inhibition at 1 µM: conc. 1 μM; for inhibition at 0.5 µM: conc. 0.5 μM; for inhibition at 0.25 µM: conc. 0.25 μM
Description: Example In Vitro Tests of Cell Activities Experimental Steps and Methods:
1) MCF-7 cells were inoculated at the density of 2.5×10^4 cells/well into 96-well plates (the culture medium used should be a complete culture medium containing 10% FBS).
2) On the next day, the medium in each well was drawn out. A certain concentration (preliminary screening) or a series of concentration (IC50 test) of compounds were dissolved in a culture medium without serum and added to the 96-well plates to culture cells for 2 hours.
3) Insulin was dissolved in a culture medium without serum, added to the cultured cells and incubated for 30 minutes, wherein the final concentration of insulin was […].
4) A lysis solution was prepared according to the following method during the waiting period for the reaction:
a) Enhancer solution was removed from the refrigerator to melt in advance.
b) Enhancer solution was diluted 10 times with the 5× Lysis Buffer to give a concentrated lysis solution.
c) The concentrated lysis solution was diluted 5 times with double distilled water to give the lysis solution.
5) The medium in each well was completely removed and each well was quickly rinsed with PBS once.
6) 150 μl of the freshly prepared lysis solution was added to each well and shaked at room temperature for 10 minutes.
7) After confirming that all cells were detached, the lysis solution together with the cell fragments was transferred into a 1.5 ml tube.
8) The tube was shaked on vortes mixer to make the lysis solution and cells mix completely and then the mixture was centrifugated at 4° C. under 12000 g for 10 minutes.
9) The number of strips of ELISA-one micro-well plate that is required was calculated. The needless strips were removed from the frame, put back into the storage bag and sealed. Before the strips of micro-well plate were used, 200 μl of double distilled water was used to rinse each well to remove preservative.
10) 50 μl of antibody mixture was added to each well. (The antibody mixture solution was prepared by mixing the medium antibody reagent and the enzyme labeled antibody reagent with an equal proportion. The preparation of antibody mixture didn't need vortex.)
11) 25 μl of cell lysates was added to each well of ELISA-One micro-well plate. The micro-well plate was covered with adhesive sealing film and incubated on a micro-well plate oscillation instrument at room temperature for 1 hour.
12) Each well was rinsed with 150 μl of 1× rinsing buffer 3 times. After the last rinsing, the rinsing buffer in the well was completely removed. If necessary, the 1× rinsing buffer could be allowed to stay in the micro-well plate for up to 30 minutes so that the substrate mixed solution could be prepared during such time period.
13) The substrate mixed solution should be prepared just before each use, 10 μl of the substrate mixed solution was added to each well and the micro-well plate was sealed with tin-foil and incubated on the micro-well plate oscillation instrument at room temperature for 10 minutes.
14) 10 μl of stop solution was added to each well and mixed slightly (5-10 seconds) on the micro-well plate oscillation instrument.
15) The corresponding ELISA-One filter group was assembled and used to read the fluorescence signal intensity.

Structure (SMILES) | IC50 (read-out: IC50 p-AKT) [nM] | inhibition at 0.5 µM (read-out: % inhibition AKT) [%] | inhibition at 0.5 µM (read-out: % inhibition p70s6k) [%] | further results
COc1ncc(-c2ccc3ncc(Cl)c(=O)n3c2)cc1NS(=O)(=O)c1nc(N)sc1C [compound 170] | ≤ 50 | – | – | –
COc1ncc(-c2ccc3nccc(=O)n3c2)cc1NS(=O)(=O)c1ccccc1C [compound 20] | ≤ 50 | – | – | inhibition at 1 µM (read-out: % inhibition AKT): 93.8%; inhibition at 1 µM (read-out: % inhibition p70s6k): 89.9%; IC50 (read-out: IC50 p-p70S6K): 100 to 250 nM
COc1ncc(-c2ccc3ncc(OC4CCC(OC)CC4)c(=O)n3c2)cc1NS(=O)(=O)c1sc(C)nc1C (stereo not shown) [compound 207] | 50 to 100 | – | – | –
CNc1ncc(-c2ccc3ncc(OCCOC)c(=O)n3c2)cc1NS(=O)(=O)c1ccc(F)cc1F [compound 215] | > 250 | – | – | –
COc1ncc(-c2ccc3nccc(=O)n3c2C)cc1NS(=O)(=O)c1ccc(F)cc1F [compound 52, 2,4-difluoro-N-(2-methoxy-5-(6-methyl-4-oxo-4H-pyrido[1,2-a]pyrimidin-7-yl)pyridin-3-yl)benzsulfamide] | – | 69.3 | 50.3 | –
COc1ncc(-c2cn3c(=O)ccnc3cn2)cc1NS(=O)(=O)c1ccccc1F [compound 44] | – | 6.3 | 4.7 | –
COc1ncc(-c2ccc3ncc(O)c(=O)n3c2)cc1NS(=O)(=O)c1ccc(F)cc1F [compound 101, 2,4-difluoro-N-(5-(3-hydroxy-4-oxo-4H-pyrido[1,2-a]pyrimidin-7-yl)-2-methoxypyridin-3-yl) benzsulfamide] | – | – | – | inhibition at 0.25 µM (read-out: % inhibition AKT): 25%; inhibition at 0.25 µM (read-out: % inhibition p70s6k): 8.6%
COc1ncc(-c2ccc3ncc(Cl)c(=O)n3c2)cc1NS(=O)(=O)c1cnc(C)[nH]1 [compound 155] | – | – | – | inhibition at 0.25 µM (read-out: % inhibition AKT): 29.8%; inhibition at 0.25 µM (read-out: % inhibition p70s6k): 42.2%
COc1ncc(-c2ccc3nccc(=O)n3c2)cc1NS(=O)(=O)c1ccc(C#N)cc1 [compound 21] | 50 to 100 | – | – | inhibition at 1 µM (read-out: % inhibition AKT): 94.1%; inhibition at 1 µM (read-out: % inhibition p70s6k): 91.2%; IC50 (read-out: IC50 p-p70S6K): 100 to 250 nM
COc1ncc(-c2cn3c(=O)ccnc3cn2)cc1NS(=O)(=O)c1cc(F)cc(F)c1 [compound 40] | – | 18.1 | 13.7 | –
COCCOc1cnc2ccc(-c3cnc(OC)c(NS(=O)(=O)C4CCCCC4)c3)cn2c1=O [compound 212] | > 250 | – | – | –
COc1ncc(-c2ccc3nccc(=O)n3c2C)cc1NS(=O)(=O)c1ccc(F)cc1Cl [compound 56] | – | 80.2 | 53.3 | –
COc1ncc(-c2ccc3nccc(=O)n3c2C)cc1NS(=O)(=O)c1ccccc1Cl [compound 54] | – | 83.1 | 50.8 | –
COc1ncc(-c2cn3c(=O)ccnc3cc2C)cc1NS(=O)(=O)c1c(F)cccc1F [compound 125] | – | 23.5 | 5 | –
COc1ncc(-c2cn3c(=O)ccnc3cc2C)cc1NS(=O)(=O)c1cccc(F)c1 [compound 124] | – | -48 | 2.8 | –
COc1ncc(-c2ccc3ncc(C)c(=O)n3c2)cc1NS(=O)(=O)c1ccccc1Cl [compound 85] | ≤ 50 | 95.8 | 88.3 | IC50 (read-out: IC50 p-p70S6K): 50 to 100 nM
COCCOc1cnc2ccc(-c3cnc(OC)c(NS(=O)(=O)c4ccc(F)cc4Cl)c3)cn2c1=O [compound 213] | 50 to 100 | – | – | –
COc1ncc(-c2ccc3ncc(F)c(=O)n3c2)cc1NS(=O)(=O)c1ccc(C#N)cc1 [compound 70] | 50 to 100 | 75.4 | 99 | IC50 (read-out: IC50 p-p70S6K): 50 to 100 nM
COc1ncc(-c2ccc3ncc(C)c(=O)n3c2)cc1NS(=O)(=O)c1ccc(Cl)cc1F [compound 82] | ≤ 50 | 92.1 | 88.1 | IC50 (read-out: IC50 p-p70S6K): 100 to 250 nM
COc1ncc(-c2ccc3ncc(Cl)c(=O)n3c2)cc1NS(=O)(=O)c1sc(NC(C)=O)nc1C [compound 167] | 100 to 250 | – | – | –
CCOc1cnc2ccc(-c3cnc(OC)c(NS(=O)(=O)c4ccc(F)cc4Cl)c3)cn2c1=O [compound 172] | ≤ 50 | – | – | inhibition at 0.25 µM (read-out: % inhibition AKT): 83.5%; inhibition at 0.25 µM (read-out: % inhibition p70s6k): 74.4%; IC50 (read-out: IC50 p-p70S6K): 100 to 250 nM
COc1ncc(-c2ccc3ncc(OC4COC4)c(=O)n3c2)cc1NS(=O)(=O)c1sc(C)nc1C [compound 203] | ≤ 50 | – | – | –
